Consider 24 molecules from BindingDB's records for doi:10.1007/s10822-022-00478-x (Roche Innovation Center Basel, F. Hoffmann-La Roche Ltd., 2022).

The test has as its target cAMP and cAMP-inhibited cGMP 3',5'-cyclic phosphodiesterase 10A (Homo sapiens, UniProt Q9Y233). In words: PDE10A assay. The gist of the method: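 Scintillation proximity readout of [3H]cGMP hydrolysis (50 nM final substrate, 15 min) by 2 ng/well human PDE10A after 15 min compound preincubation at RT, pH 7.5 with MgCl2. Four-parameter logistic fit gave IC50, reported as pIC50.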
Consider `CN(CCO)c1nc(OCc2nc(-c3ccccc3)cn2C)nc2ccc(Cl)cc12` [Roche-Dataset for PDE10A, Compound 19], for which the 50% inhibitory concentration (IC50) was 3.09 nM. The molecule `Cn1ncc(C(=O)N2CCC2)c1C(=O)Nc1cc2nc(N3CCOCC3)nn2cn1` [Roche-Dataset for PDE10A, Compound 422] registered an IC50 of 4.83 nM.

`O=C(NC1CCN(Cc2ccccc2)CC1)c1nc(C2CC2)cnc1Nc1cncnc1` [Roche-Dataset for PDE10A, Compound 823]: the IC50 was 5050 nM. To `CNC(=O)c1cc2[nH]c(-c3ccccc3)nc2cc1NC(=O)c1ccn(C)n1` [Roche-Dataset for PDE10A, Compound 526] belongs 111 nM; to `Cn1ncc(C(=O)N2CCOCC2)c1C(=O)N[C@H]1CCn2cc(-c3ccc(F)cc3)nc2C1` [Roche-Dataset for PDE10A, Compound 938], 624 nM; to `CC(C)Cn1ccc(NC(=O)c2c(C(=O)N3CCC3)cnn2C)n1` [Roche-Dataset for PDE10A, Compound 1055], 258 nM. In turn, `COC[C@H]1CCCN1c1nc(/C=C/c2nc3c(C)ncc(C)n3n2)n(C)n1` [Roche-Dataset for PDE10A, Compound 388] came in with an IC50 of 5.53 nM. Turning to `O=C(Nc1cc(-c2ccccn2)nn1CCN1CCOCC1)c1nc(C2CC2)ccc1Nc1cncnc1` [US8470820, 16], the half-maximal inhibitory concentration (IC50) amounted to 1.53 nM.

With `Cn1ncc(C(=O)N2CCC2)c1C(=O)Nc1ccc2cc(-c3ccccc3)nn2n1` [Roche-Dataset for PDE10A, Compound 1133], 8.14 nM corresponded to half-maximal inhibition (IC50).

The molecule `Cc1ncc(Br)c2nc(CCc3nc(N4CCCC4)nn3C)nn12` [Roche-Dataset for PDE10A, Compound 658] showed an IC50 of 34 nM. For `Cn1ncc(C(=O)N2CCC2)c1C(=O)Nc1ccn2nc(-c3cccc(OCCF)n3)nc2c1` [Roche-Dataset for PDE10A, Compound 66] the value was 5.36 nM.

Consider `Cc1cc(C)n2nc(CCc3ncnn3C)nc2n1` [Roche-Dataset for PDE10A, Compound 1159], for which 10000 nM corresponded to half-maximal inhibition (IC50). To `CCN(C)C(=O)c1c(C(=O)Nc2ccn3cc(-c4ccccc4)nc3n2)cnn1C` [Roche-Dataset for PDE10A, Compound 144] belongs 10000 nM; to `CNC(=O)c1c(NC(=O)c2nc(OC)cnc2Nc2cncnc2)cnn1C` [US8703768, 258], 141 nM; to `Cc1c(Cl)cc(Cl)c2nc(CCc3nc(N4CCCC4)nn3C)nn12` [Roche-Dataset for PDE10A, Compound 357], 0.55 nM. To `Cn1ncc(C(=O)N2CCC2)c1C(=O)Nc1cn(-c2ccc3ccccc3n2)cn1` [Roche-Dataset for PDE10A, Compound 137] belongs 0.7 nM; to `Cc1c(C(F)(F)F)nc2ccc(OCc3nc(-c4ccccc4)cn3C)nn12` [US10399985, Example 36], 34 nM; to `O=C(NCCC1CCOCC1)c1nc(C2CC2)cnc1Nc1cncnc1` [Roche-Dataset for PDE10A, Compound 915], 1470 nM. Turning to `CNC(=O)c1cc(NC(=O)c2c(C(=O)N3CCC3)cnn2C)nn1C` [Roche-Dataset for PDE10A, Compound 1021], half-maximal inhibition (IC50) required 10000 nM.

As for `Cn1ncc(C(=O)N2CCC2)c1C(=O)Nc1ccn(Cc2ccc(Cl)cc2)n1` [Roche-Dataset for PDE10A, Compound 970], the IC50 amounted to 120 nM. This IC50 lies about 83-fold lower than the previous one.

As for `Cn1ncc(C(=O)N2CCC2)c1C(=O)Nc1ccn(-c2cc(Cl)cc(Cl)c2)n1` [Roche-Dataset for PDE10A, Compound 1051], it took 43 nM to reach half-maximal inhibition (IC50). For `O=C(Nc1ccc2cccnc2c1)c1nc(C2CC2)ccc1Nc1cncnc1` [Roche-Dataset for PDE10A, Compound 929] the value was 5.75 nM. To `Cc1c(Cl)cc(OCC(F)(F)F)c2nc(CCc3nc(N4CCCC4)nn3C)nn12` [Roche-Dataset for PDE10A, Compound 119] belongs 0.5 nM; to `Cn1ncc(C(=O)N2CCC2)c1C(=O)Nc1ccn2nc(-c3cccnc3)nc2c1` [Roche-Dataset for PDE10A, Compound 281], 1.16 nM.

The term IC50 denotes the concentration that inhibits the measured activity by half. Higher therefore signals weaker potency.
